Results as given in USRE48335E1, “Polymyxin derivatives as antimicrobial compounds” (priority 2014, dated 2020).
Converted amounts (≈) assume the structure as drawn. Positions of bridges follow the written chain, without caps; N, C: chain ends. Non-standard residues stand in square brackets, D forms with d. Residues, ends and D or L forms follow the SMILES beside them. *: point of attachment. Heptanoyl(6-Me) = CC(C)CCCCC(=O)*; X38 = O=C(c1ccc(Cl)cc1C(F)(F)F)*; X30 = Cc1cc(C)c(C(=O)*)c(C)c1; X28 = O=C(c1ccc(F)cc1Cl)*; Octanoyl = CCCCCCCC(=O)*; Orn = NCCC[C@H](N)C(=O)O; Dab = NCC[C@H](N)C(=O)O; Abu = CC[C@H](N)C(=O)O; Dap = NC[C@H](N)C(=O)O

Tests used:
Acinetobacter baumannii = system: Acinetobacter baumannii
Experimental: (§1) MICs of the lipopeptides (trifluoroacetic acid salt, TFA) were determined by broth microdilution in cation-adjusted Mueller-Hinton broth (CAMHB) (Oxoid Australia, Thebarton, SA, Australia) according to Clinical and Laboratory Standards Institute standards (Clinical and Laboratory Standards Institute. Performance standards for antimicrobial susceptibility testing; eighteenth informational supplement M100-S18. Wayne, Pa., 2008). Polymyxin B (sulphate) was employed as control. […]

Enterobacter cloacae = system: Enterobacter cloacae
Experimental: as §1

Pseudomonas aeruginosa = system: Pseudomonas aeruginosa
Experimental: as §1

Row | Structure (SMILES) | Minimum inhibitory concentration, Ab A ATCC 17978 (Acinetobacter baumannii) [µg/mL] | Minimum inhibitory concentration, Ab ATCC 19606 (Acinetobacter baumannii) [µg/mL] | Minimum inhibitory concentration, Ab FADDI-AB034 (Acinetobacter baumannii) [µg/mL] | Minimum inhibitory concentration, Ec FADDI-EC001 (Enterobacter cloacae) [µg/mL] | Minimum inhibitory concentration, Ec FADDI-EC003 (Enterobacter cloacae) [µg/mL] | Minimum inhibitory concentration, Ec FADDI-EC006 (Enterobacter cloacae) [µg/mL] | Minimum inhibitory concentration, Pa ATCC 27853 (Pseudomonas aeruginosa) [µg/mL] | Minimum inhibitory concentration, Pa FADDI-PA022 (Pseudomonas aeruginosa) [µg/mL] | Minimum inhibitory concentration, Pa FADDI-PA025 (Pseudomonas aeruginosa) [µg/mL]
1 | CC[C@@H]1NC(=O)[C@@H](CC(C)C)NC(=O)[C@H](CCN)NC(=O)[C@@H](NC(=O)[C@H](CN)NC(=O)[C@@H](NC(=O)[C@H](CCN)NC(=O)c2ccc(Cl)cc2C(F)(F)F)[C@@H](C)O)CCNC(=O)[C@H]([C@@H](C)O)NC(=O)[C@H](CCN)NC(=O)[C@H](CCN)NC1=O [Compound 136] (X38-[Dab]T[Dap][Dab][Dab][dL][Abu][Dab][Dab]T; lactam 4-C) | 0.5 (≈ 0.419 µM) | 0.5 (≈ 0.419 µM) | 0.25 (≈ 0.209 µM) | <0.125 | <0.125 | 0.25 (≈ 0.209 µM) | 0.5 (≈ 0.419 µM) | 2 (≈ 1.68 µM) | 1 (≈ 0.838 µM)
2 | CC[C@@H]1NC(=O)[C@@H](CC(C)C)NC(=O)[C@H](CCN)NC(=O)[C@@H](NC(=O)[C@H](CN)NC(=O)[C@@H](NC(=O)[C@H](CCN)NC(=O)c2ccc(F)cc2Cl)[C@@H](C)O)CCNC(=O)[C@H]([C@@H](C)O)NC(=O)[C@H](CCN)NC(=O)[C@H](CCN)NC1=O [Compound 135] (X28-[Dab]T[Dap][Dab][Dab][dL][Abu][Dab][Dab]T; lactam 4-C) | 1 (≈ 0.874 µM) | 4 (≈ 3.5 µM) | 1 (≈ 0.874 µM) | <0.125 | <0.125 | <0.125 | 0.5 (≈ 0.437 µM) | 1 (≈ 0.874 µM) | 2 (≈ 1.75 µM)
3 | CC[C@@H]1NC(=O)[C@@H](CC(C)C)NC(=O)[C@H](CCN)NC(=O)[C@@H](NC(=O)[C@H](CN)NC(=O)[C@@H](NC(=O)[C@H](CCN)NC(=O)CCCCC(C)C)[C@@H](C)O)CCNC(=O)[C@H]([C@@H](C)O)NC(=O)[C@H](CCN)NC(=O)[C@H](CCN)NC1=O [Compound 66] ({Heptanoyl(6-Me)}-[Dab]T[Dap][Dab][Dab][dL][Abu][Dab][Dab]T; lactam 4-C) | 0.25 (≈ 0.225 µM) | 0.25 (≈ 0.225 µM) | 0.5 (≈ 0.449 µM) | 0.5 (≈ 0.449 µM) | <0.125 | 0.25 (≈ 0.225 µM) | 1 (≈ 0.898 µM) | 2 (≈ 1.8 µM) | 4 (≈ 3.59 µM)
4 | CCCCCCCC(=O)N[C@@H](CCN)C(=O)N[C@H](C(=O)N[C@@H](CN)C(=O)N[C@H]1CCNC(=O)[C@H]([C@@H](C)O)NC(=O)[C@H](CCN)NC(=O)[C@H](CCN)NC(=O)[C@H]([C@@H](C)O)NC(=O)[C@@H](CC(C)C)NC(=O)[C@H](CCCN)NC1=O)[C@@H](C)O [Compound 55] (Octanoyl-[Dab]T[Dap][Dab][Orn][dL]T[Dab][Dab]T; lactam 4-C) | >32 | >32 | >32 | 1 (≈ 0.875 µM) | 4 (≈ 3.5 µM) | >32 | >32 | >32 | >32
5 | CC[C@@H]1NC(=O)[C@@H](CC(C)C)NC(=O)[C@H](CCN)NC(=O)[C@@H](NC(=O)[C@H](CN)NC(=O)[C@@H](NC(=O)[C@H](CCN)NC(=O)c2c(C)cc(C)cc2C)[C@@H](C)O)CCNC(=O)[C@H]([C@@H](C)O)NC(=O)[C@H](CCN)NC(=O)[C@H](CCN)NC1=O [Compound 92] (X30-[Dab]T[Dap][Dab][Dab][dL][Abu][Dab][Dab]T; lactam 4-C) | 0.5 (≈ 0.441 µM) | 4 (≈ 3.53 µM) | 4 (≈ 3.53 µM) | <0.125 | 0.25 (≈ 0.221 µM) | 2 (≈ 1.76 µM) | 0.5 (≈ 0.441 µM) | 0.5 (≈ 0.441 µM) | 4 (≈ 3.53 µM)
